Source: patent US5843983A, “Diphenylethane compounds containing a saturated heterocyclic group, their preparation, and their therapeutic use” (Sankyo Company, Limited, priority 1996, dated 1998)
pIC50: −log10 of the molar value. Where a name gives a salt, the structure may show the parent alone.

How the values were obtained:
[1] = system: smooth muscle contraction; assay: Vasoconstriction experiment (serotonin-induced contraction of tail artery helical strip); type: cell-based, Male SD rats; conditions: rat tail artery strip, 3×10^-6 M serotonin, Tyrode's solution, 37° C.; read-out: IC50 (concentration required to reduce the tension to 50%)
Procedure: Vasoconstriction experiment
Effects on smooth muscle contraction were examined by the method of Van Neuten et al. [J. Pharmacol. Exp. Ther., 218, 217-230, (1981)]. Male SD rats, each weighing approximately 500 g, were sacrificed by exsanguination, and the tail artery was excised from each animal. Adherent tissues were removed from the artery for preparation of a helical strip of dimensions about 2×20 mm. The strip was suspended in an organ bath kept at 37° C. and containing 10 ml of Tyrode's solution saturated with a mixed gas (95% O2 /5% CO2) and equilibrated for 1 hour before used in the experiment. An initial tension of 0.5 g was loaded on the helical strip, and changes in tension were recorded in an isometric manner via a transducer. 3×10^-6 M of serotonin was added to the bath as a vasoconstriction inducer, and, after stabilisation of the contractile response of the specimen, a test compound was added to the bath so as to increase the level of test compound in the bath progressively, whilst monitoring the tension in the helical strip. 10^-4 M of papaverine was then added. On the assumption that the tension before the addition of each test compound was 100% and that the tension 5 minutes after the addition of papaverine was 0%, the concentration of each test compound required to reduce the tension to 50% (IC50) was calculated from the least square regression line.

serotonin receptors = assay: Receptor-binding experiment; set-up: species or system Male Wistar rats; conditions: rat cerebral cortex membrane, ^3 H-ligand, 30° C., 1 hour; read-out: IC50 (concentration required to inhibit the binding by 50%)
Procedure: Receptor-binding experiment
The method of Leysen et al. [Mol. Pharmacol., 21, 301-314, (1982)] was employed. Male Wistar rats (body weight 280-320 g) were used in this experiment. The head of each animal was severed, and the cerebral cortex and corpus striatum were excised. These organs were frozen on dry ice and stored at -80° C. until used. Binding to serotonin receptors was examined using the cerebral cortex. To prepare a membrane suspension, the frozen brain tissue was homogenised with 50 mM Tris-HCl buffer (pH 7.7) using Polytron PT-20, and the homogenate was centrifuged at 49,000×gfor 10 minutes. The resulting pellet was suspending in a Tris buffer, centrifuged, and resuspended in Tris buffer. The content of protein in the membrane suspension thus prepared was determined, and adjusted to 0.57 mg/protein/ml with Tris buffer. The membrane suspension was stored at -80° C.
The receptor-binding reaction was started by adding 440 μl of the membrane suspension to a test tube containing 50 μl of ^3 H-ligand and 10 μl of each test compound (dissolved in dimethyl sulfoxide). After incubation at 30° C. for 1 hour, the reaction was terminated by filtration under reduced pressure using a Whatman GF/B glass filter. The filter was washed with ice-cooled Tris buffer (4 ml×2 times). The filter was then treated with ACS-II, and its radioactivity was determined with a liquid scintillation counter. Non-specific binding was determined in the presence of 20 μM atropine. The percent inhibition of receptorbinding was determined from the percent binding in the presence of each test compound. The concentration of each test compound required to inhibit the binding by 50% (IC50) was calculated from the least square regression line.

squalene synthase = molecular target: T1, squalene synthase (Rattus norvegicus, UniProt Q02769); assay: Squalene synthase inhibitory activity; type: biochemical; conditions: rat liver microsome, 10 μM [4-^14 C]-FPP, pH 7.5, 37° C., 20 minutes; read-out: IC50 (50% inhibitory concentration)
T1 construct: The reaction was started by the addition of rat liver microsome suspension; from tissue; host or cells: rat liver microsomes
T1 sequence (Q02769 1-416): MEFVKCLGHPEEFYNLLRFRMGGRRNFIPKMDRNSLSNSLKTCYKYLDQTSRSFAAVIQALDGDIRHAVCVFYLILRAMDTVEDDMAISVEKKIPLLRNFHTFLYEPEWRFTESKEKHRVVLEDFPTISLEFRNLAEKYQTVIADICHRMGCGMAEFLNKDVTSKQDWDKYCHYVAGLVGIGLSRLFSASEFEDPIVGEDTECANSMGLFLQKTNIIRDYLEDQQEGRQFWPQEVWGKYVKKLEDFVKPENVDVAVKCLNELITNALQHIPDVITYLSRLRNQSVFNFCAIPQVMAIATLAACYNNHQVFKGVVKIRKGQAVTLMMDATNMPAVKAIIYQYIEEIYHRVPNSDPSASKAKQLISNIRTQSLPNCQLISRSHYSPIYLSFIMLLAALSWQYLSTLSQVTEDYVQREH
Procedure: Squalene synthase inhibitory activity Squalene synthase inhibitory activity was determined by the method described in U.S. Pat. […] Anal. Biochem. 203, 310 (1992). […] The reaction was started by the addition of rat liver microsome suspension. The reaction solution was then incubated in a thermostat at 37° C. for 20 minutes, after which the reaction was terminated by the addition of 100 μl of a 1:1 by volume mixture of 40% KOH (aqueous potassium hydroxide) and 95% EtOH (aqueous ethanol). The reaction solution thus treated was further heated at 65° C. for 30 minutes, and then cooled. Squalene was extracted with 2 ml of hexane. One milliliter of the resulting hexane layer was mixed with 10 ml of scintillator, and radioactivity was determined using a liquid scintillation counter. The inhibitory activity of each test compound for the enzyme was determined by co-incubation of the sample containing the test compound with the enzyme sample and substrate in the reaction solution.

SMILES | pIC50 [1] | pIC50 (serotonin receptors) | pIC50 (squalene synthase)
CN1C[C@H](O)C[C@H]1CCOc1ccc(F)cc1CCc1ccccc1 [Example 6, (2R,4R)-2-{2-[4-Fluoro-2-(2-phenylethyl)phenoxy]ethyl}-4-hydroxy-1-methylpyrrolidine hydrochloride] | 8.66 | 8.47 | 5.96
COc1cccc(CCc2cc(F)ccc2OCC[C@@H]2C[C@@H](O)CN2C)c1 [Example 1, (2R,4R)-2-[2-{4-Fluoro-2-[2-(3-methoxyphenyl)ethyl]phenoxy}ethyl]-4-hydroxy-1-methylpyrrolidine hydrochloride] | 8.72 | 9.00 | –
O[C@H]1CN[C@H](CCOc2ccc(F)cc2CCc2ccccc2)C1 [Example 5, (2R,4R)-2-{2-[4-Fluoro-2-(2-phenylethyl)phenoxy]ethyl}-4-hydroxypyrrolidinehydrochloride] | – | – | 6.13
CN1C[C@H](O)C[C@H]1CCOc1ccc(F)cc1CCc1ccc(F)c(F)c1 [Example 7, (2R,4R)-2-[2-{2-[2-(3,4-Difluorophenyl)ethyl]-4-fluorophenoxy}ethyl]-4-hydroxy-1-methylpyrrolidine hydrochloride] | 8.59 | 9.12 | –
Cc1ccc(OCC[C@@H]2C[C@@H](O)CN2C)c(CCc2ccccc2)c1 [Example 12, (2R,4R)-4-Hydroxy-1-methyl-2-{2-[4-methyl-2-(2-phenylethyl)phenoxy]ethyl}pyrrolidine hydrochloride] | – | – | 5.82
CN1C[C@H](O)C[C@H]1CCOc1ccc(F)cc1CCc1ccc(F)cc1 [Example 2, (2R,4R)-2-[2-{4-Fluoro-2-[2-(4-fluorophenyl)ethyl]phenoxy}ethyl]-4-hydroxy-1-methylpyrrolidine hydrochloride] | 8.70 | 9.10 | –
COc1cc(CCc2cc(F)ccc2OCC[C@@H]2C[C@@H](O)CN2C)ccc1F [Example 4, (2R,4R)-2-[2-{4-Fluoro-2-[2-(4-fluoro-3-methoxyphenyl)ethyl]phenoxy}ethyl]-4-hydroxy-1-methylpyrrolidine hydrochloride] | 8.64 | 9.19 | 5.80
